Test results: EP0719267B1, “SECOND MESSENGER CELL SIGNALING INHIBITORS” (CELL THERAPEUTICS, INC., priority 1993, dated 1994)
“Also recorded” adds a separate entry of the source. Read-outs that look alike come from different tables or passages of the source.

Columns and labels:
[1] = system: IL-2 receptor beta (p70) subunit; assay: IL-2 receptor beta subunit internalization in CT-6.1 cells (flow cytometry); type: cell-based, murine; conditions: 20 ng/ml IL-2
Description: In figure 55, inventive compound no. […] In this assay protocol, CT-6.1 cells were starved overnight and stimulated with 20 ng/ml IL-2. At various times following IL-2 stimulation, cells were rapidly suspended in ice cold PBS and stained using a fluoresceinated monoclonal recognizing the beta subunit of the IL-2 receptor and cell surface expression analyzed by flow cytometry. Figure 55 is a plot of mean fluorescence versus time (in minutes) following IL-2 addition, illustrating that IL-2r beta subunit was rapidly internalized following IL-2 addition with cell surface expression remaining low for 6 hours. Inventive compound no.

[2] = system: murine splenocytes; assay: Anti-CD3 priming followed by IL-2 restimulation of splenocytes; type: cell-based; conditions: 1 µM
Description: 53A. […] The cells were pulsed with ^3H-TdR for 4 hours and harvested and incorporation of ^3H-TdR determined.

[3] = system: C57BL/6 splenocytes; assay: Antigen specific anergy induction (splenocytes with 2PK3 B cell tumor, restimulation); type: cell-based, murine
Description: A B cell tumor, 2PK3 (H-2d) was used as a stimulating cell for C57BL/6 splenocytes (H-2b), a responding cell. Mixed cultures of B-cell tumor and splenocytes were incubated for 5 days with and without 1 µM of compound no. 45. After 5 days, the cells were washed and resuspended with either media, the original antigen (2PK3) or anti-CD3. Tritiated thymidine was added to the resulting suspensions and thymidine incorporation measured 24 hours later. As illustrated, culture treated with inventive compound no. […] However, cultures incubated with inventive compound no. […] Thus, C57BL/6 splenocytes were inhibited from responding to an original antigen by the inventive compound used in the pre-incubation step.
As shown in figures 56A and 56B, inventive compound no. 45 also induces antigen specific T-cell anergy. Procedurally, murine splenocytes were stimulated with an alloantigen target cell line 2PK3 in the presence or absence of compound no. 45 (1 µM; approximate IC50). Following 5 days in culture, the cells were washed, re-cultured and restimulated with the original priming antigen and anti-CD3 monoclonal antibody. […] 45 during the five day primary culture. […] Although cells pretreated with inventive compound no. 45 could respond normally to polyclonal stimulation, those that were challenged with the alloantigen could not. Therefore, compound no. 45 induced a specific state of unresponsiveness or anergy to the alloantigen.

[4] = system: murine splenocytes; assay: Anti-CD3 stimulated splenocyte proliferation; type: cell-based; conditions: Mus musculus
Description: In the assay, murine splenocytes were activated with a monoclonal antibody directed against CD3 (1 µg/ml), resulting in an IL-2 mediated proliferative response.
45 (1 µM). […] The supernatants were harvested and assayed for cytokine levels using commercial ELISAs for proliferation.

[5] = system: normal human bone marrow stromal cells; assay: Cytotoxicity in normal bone marrow stromal cells (vital dye uptake); type: cell-based; conditions: much higher concentrations than cytotoxic to tumor cells
Description: Human bone marrow stromal cells (1 x 10^4 cells/well) were plated in 96 well plates in McCoy's medium with serum and incubated overnight. Different dilutions of inventive compound no. 50 were added and viable cell counts made by vital dye uptake.

[6] = system: human aortic smooth muscle cells (aortic SMC); assay: Growth factor-induced proliferation of aortic smooth muscle cells; type: cell-based; conditions: 5 µM
Description: 58. One assay was used for investigating effects on PDGF-induced proliferation of human aortic smooth muscle cells (aortic SMC). Cells, purchased from a commercial supplier (Cell Systems, Inc., Seattle, WA), were cultured with various concentrations of PDGF-BB with and without addition of compound no. 58 (5 µM). […] 58 inhibited PDGF-induced proliferation even at high PDGF concentrations providing maximum proliferative stimulation. In addition, some cultures were treated 1 hour prior to PDGF stimulation with inventive compound no. 58. As shown, PDGF stimulated proliferation in this cell line. Addition of 5 µM of compound no. […] 58 were observed.
Another assay was used for investigating inhibitory effects of inventive compound no. 58 on either basic or acidic FGF-induced proliferation in human aortic smooth muscle cells (aortic SMC). Disregulated bFGF- or aFGF-induced proliferation is linked to SMC proliferation and neointimal occlusion in atherogenesis and restenosis and plays a role in autocrine and paracrine stimulation of tumor cells and tumor cell-induced angiogenesis. In this assay, cells were grown in reduced serum (0.5% fetal calf serum) for 24 hours prior to stimulating with various concentrations of […]. Cells were stimulated with various concentrations overnight of either aFGF or bFGF, adding 5µM of compound no. 58 in selected cultures. Compound no. […] Results shown in figure 20A (aFGF) and figure 20B (bFGF) illustrate the degree of inhibition.
(§1) Figures 65A-65F illustrate inhibition of proliferation in either human aortic or pulmonary smooth muscle cells (SMC) by inventive compound no. 58. Procedurally, cells were cultured in 0.5% serum containing medium 24 hours prior to stimulation with various concentrations of either PDGF (figs. 65A and 65B), acidic FGF (figs. 65C and 65D) or basic FGF (figs. 65E and 65F). Cells were stimulated for 24 hours prior to labeling with ^3H-TdR for 4 hours and harvested and counted by scintillation. Compound no. 58 was added 1 hour prior to stimulation at a concentration of 5 µM. Even at points of maximum stimulation of the growth factors, compound no. […] In addition cell number was assessed and those treated with compound no.

[7] = system: human TNFα; assay: Whole blood ex vivo assay of TNF release (ELISA); type: cell-based; conditions: mouse TNFα and human IL-1α, 6 hours
Description: Figure 74 illustrates that inventive compound no. […] 58 using a human whole blood ex vivo assay. In this assay, human whole blood was stimulated with mouse TNFα and human IL-1α with or without various concentrations of inventive compound no. 58. After 6 hours, the plasma was analyzed for human TNFα levels using a commercial ELISA.

[8] = system: human pulmonary smooth muscle cells; assay: Growth factor-induced proliferation of pulmonary smooth muscle cells; type: cell-based; conditions: 5 µM
Description: 58 on either aFGF or bFGF-induced proliferation in human pulmonary smooth muscle cells. Cells were grown in reduced serum (0.5% fetal calf serum) for 24 hours prior to stimulating with various concentrations of […]. Cells, stimulated with either aFGF or bFGF, were analyzed in the presence and absence of compound no. 58 (5 µM). Assay results are reported in figures 25A and 25B (aFGF and bFGF, respectively). As shown in the results, compound no.
as §1

[9] = system: human smooth muscle cells (SMC); assay: Chemotaxis of smooth muscle cells to PDGF (Boyden chamber); type: cell-based; conditions: eight hours
Description: Figure 71 illustrates that inventive compound no. […] In the assay, cells were seeded in a Boyden chamber with or without various concentrations of inventive compound no. 58. Eight hours later, the number of cells that had migrated were scored visually. Inventive compound no.

SMILES: CCCCCCCCNCC(O)CCCCCCCCCn1c(=O)c2c(ncn2C)n(C)c1=O (stereo not shown) [compound no. 45]
- IL-2 receptor beta subunit internalization [1]: did not inhibit this receptor internalization activity
- proliferation of anti-CD3 primed splenocytes, compound present with IL-2 [2]: proliferation was inhibited
- response to IL-2 after compound present during anti-CD3 incubation [2]: did not block the splenocyte's ability to respond to IL-2
- response to anti-CD3 after 5 days culture with compound ([3]; 1 µM): responded equivilantly to anti-CD3; also recorded: polyclonal T-cell response to anti-CD3 was not affected
- response to original/priming antigen 2PK3 after 5 days culture with compound ([3]; 1 µM): decreased response to primary antigen, 2PK3; also recorded: secondary response to the priming antigen was inhibited
- IC50 ([3]; Mus musculus, Splenocyte, alloantigen target cell line 2PK3, read-out: approximate IC50): ~1 µM
- IC50 ([4]; anti-CD3 (1 µg/ml), read-out: IC50): ~0.85 µM
- IC50 ([4]; read-out: concentration approximately equal to IC50 value): ~1 µM

SMILES: CCCCCCCCCCCCNCC(O)CCCCCCCCCn1c(=O)c2c(ncn2C)n(C)c1=O (stereo not shown) [compound no. 50, 1-(11-Dodecylamino-10-hydroxyundecyl)-3,7-dmethylxanthine]
- cytotoxic activity [5]: lacks cytotoxic activity in normal human bone marrow stromal cells

SMILES: COc1cc(CNCC(O)CCCCCCCCCn2c(=O)c3c(ncn3C)n(C)c2=O)cc(OC)c1OC (stereo not shown) [compound no. 58, 1-[11-(3,4,5-Trimethoxybenzylamino)-10-hydroxyundecyl]-3,7-dimethylxanthine]
- inhibition of PDGF-induced proliferation [6]: blocked PDGF-stimulated proliferation
- inhibition of aFGF- and bFGF-induced proliferation [6]: a potent inhibitor of both aFGF- and bFGF-induced proliferation
- toxic effects [6]: No toxic effects
- inhibition of proliferation at maximum stimulation by PDGF, acidic FGF or basic FGF ([6]; added 1 hour prior): completely inhibited cellular proliferation in both aortic and pulmonary SMC
- cell number following growth factor stimulation ([6]; aortic and pulmonary SMC): showed no increase in cell number following growth factor stimulation
- TNF release [7]: inhibited TNF release
- inhibition of aFGF and bFGF-induced proliferation [8]: a potent inhibitor of both aFGF and bFGF-induced proliferation
- toxic effect [8]: No toxic effect
- inhibition of proliferation at maximum stimulation by PDGF, acidic FGF or basic FGF ([8]; added 1 hour prior): completely inhibited cellular proliferation in both aortic and pulmonary SMC
- PDGF-directed chemotaxis [9]: had no effect on PDGF-directed SMC chemotaxis
